Experiments:
Rhesus PDE2A3 = Rhesus PDE2A3 (Macaca mulatta, UniProt B3VTJ2); experiment: IMAP fluorescence polarization assay, rhesus PDE2A3 lysate from transfected AD293 cells; type: biochemical, rhesus macaque; conditions: FAM-labeled cAMP 50 nM, activator cGMP 1 uM; read-out: Rhesus PDE2 Ki
Procedure: The activity of the compounds in accordance with the present invention as PDE2 inhibitors may be readily determined using a fluorescence polarization (FP) methodology (Huang, W., et al., J. Biomol Screen, 2002, 7: 215).
In a typical experiment the PDE2 inhibitory activity of the compounds of the present invention was determined in accordance with the following experimental method. Rhesus PDE2A3 was amplified from rhesus macaque brain cDNA (Biochain Institute, Hayward, Calif.) using primers based on human PDE2A sequence (accession NM_002599.3) where the forward primer containing a Kozak consensus was 5′-[…]-3′ and the reverse primer was 5′-[…]-3′. Amplification with Easy-A High-Fidelity PCR cloning enzyme (Stratagene, La Jolla, Calif.) was 95° C. for 2 minutes followed by thirty three cycles of 95° C. for 40 seconds, 52° C. for 30 seconds, and 72° C. for 2 minutes 48 seconds. Final extension was 72° C. for 7 minutes. The PCR product was TA cloned into pcDNA3.3-TOPO (Invitrogen, Carlsbad, Calif.) according to standard protocol. A consensus sequence was developed from multiple clones and then deposited into GenBank (EU812167). AD293 cells (Stratagene, La Jolla, Calif.) with 70-80% confluency were transiently transfected with rhesus PDE2A3/pcDNA3.3-TOPO using Lipofectamine 2000 according to manufacturer specifications (Invitrogen, Carlsbad, Calif.). Cells were harvested 48 hours post-transfection and lysed by sonication (setting 3, 10×5 sec pulses) in a buffer containing 20 mM HEPES pH 7.4, 1 mM EDTA and Complete Protease Inhibitor Cocktail Tablets (Roche, Indianapolis, Ind.). Lysate was collected by centrifugation at 75,000×g for 20 minutes at 4° C. and supernatant utilized for evaluation of PDE2 activity. The fluorescence polarization assay for cyclic nucleotide phosphodiesterases was performed using an IMAP® FP kit supplied by Molecular Devices, Sunnyvale, Calif. (product # R8139). […] Assays were performed at room temperature in 384-well microtiter plates with an incubation volume of 20.2 μL. Solutions of test compounds were prepared in DMSO and serially diluted with DMSO to yield 8 μL of each of 10 solutions differing by 3-fold in concentration, at 32 serial dilutions per plate. […] 0% of inhibition is determined by using DMSO (1% final concentrations).
A Labcyte Echo 555 (Labcyte, Sunnyvale, Calif.) is used to dispense 200 nL from each well of the titration plate to the 384 well assay plate. Ten microliters of a solution of enzyme (1/2000 final dilution from aliquots; sufficient to produce 20% substrate conversion) was added to the assay plate. Next 10 uL of a separate solution of the substrate FAM-labeled cAMP (50 nM final concentration product # R7506 from Molecular Devices) and the activator cGMP (1 uM final concentration), prepared in the assay buffer (10 mM Tris HCl, pH 7.2, 10 mM MgCl2, 0.05% NaN3 0.01% Tween-20, and 1 mM DTT) was added to the assay plate and shaken to mix. The reaction is allowed to proceed at room temperature for 60 minutes. A binding solution is then made from the kit components, comprised of 80% Solution A, 20% Solution B and binding reagent at a volume of 1/600 the total binding solution. The enzymatic reaction is stopped by addition of 60 μL of the binding solution to each well of the assay plates and the plates are sealed and shaken for 30 seconds. The plate was incubated at room temperature for at least one hour prior to determining the fluorescence polarization (FP). The parallel and perpendicular fluorescence of each well of the plate was measured using a Tecan Genios Pro plate reader (Tecan, Switzerland) or Perkin Elmer EnVision™ plate reader (Waltham, Mass.). Fluorescence polarization (mP) was calculated from the parallel (S) and perpendicular (P) fluorescence of each sample well and the analogous values for the median control well, containing only substrate (So and Po), using the following equation: Polarization (mP)=1000*(S/So−P/Po)/(S/So+P/Po).

human PDE2A1 = human PDE2A1 (Homo sapiens (Human), UniProt O00408); experiment: IMAP fluorescence polarization assay, human PDE2A1 (PDE selectivity panel); type: biochemical; conditions: FAM cAMP 50 nM with 1000 nM cGMP
human PDE2A1, sequence (O00408 other isoform, or with tags, fused parts or gaps): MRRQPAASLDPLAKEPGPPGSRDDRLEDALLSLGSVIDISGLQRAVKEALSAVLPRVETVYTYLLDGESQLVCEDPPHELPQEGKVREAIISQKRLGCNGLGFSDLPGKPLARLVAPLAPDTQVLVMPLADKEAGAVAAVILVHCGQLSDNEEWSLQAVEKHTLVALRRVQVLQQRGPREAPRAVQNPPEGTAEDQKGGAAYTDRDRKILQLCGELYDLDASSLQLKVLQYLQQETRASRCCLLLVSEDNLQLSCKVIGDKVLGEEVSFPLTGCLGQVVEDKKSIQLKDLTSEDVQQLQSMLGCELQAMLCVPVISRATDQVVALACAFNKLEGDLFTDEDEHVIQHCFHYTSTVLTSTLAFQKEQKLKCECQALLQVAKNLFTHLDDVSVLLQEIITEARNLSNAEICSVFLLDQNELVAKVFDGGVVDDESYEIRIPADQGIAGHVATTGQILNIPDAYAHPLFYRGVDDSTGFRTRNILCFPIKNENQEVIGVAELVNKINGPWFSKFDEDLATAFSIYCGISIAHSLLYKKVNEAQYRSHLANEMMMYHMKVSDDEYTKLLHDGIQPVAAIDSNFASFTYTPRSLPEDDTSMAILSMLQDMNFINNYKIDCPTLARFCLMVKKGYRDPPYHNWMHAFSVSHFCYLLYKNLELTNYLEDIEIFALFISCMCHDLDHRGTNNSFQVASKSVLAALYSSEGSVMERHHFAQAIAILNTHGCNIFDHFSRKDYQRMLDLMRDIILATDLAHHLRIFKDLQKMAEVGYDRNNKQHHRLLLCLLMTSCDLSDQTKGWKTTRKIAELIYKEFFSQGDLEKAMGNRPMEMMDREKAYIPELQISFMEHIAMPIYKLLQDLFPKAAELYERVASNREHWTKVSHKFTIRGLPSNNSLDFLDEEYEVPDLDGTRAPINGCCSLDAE
In short: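 GST-tagged human PDE2A1 from insect cells; enzyme set to ~20% conversion of 50 nM FAM-cAMP with 1000 nM cGMP, 60 min at room temperature in pH 7.2 Tris/MgCl2/DTT buffer, ten 3-fold compound dilutions. IMAP FP read, apparent Ki derived using apparent KM 10,000 nM.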

[1] = reported in Brandon et al. 2007; cited from earlier work
other PDE isoforms = conditions: reported in Brandon et al. 2007; cited from earlier work

Rhesus PDE2A3, sequence (B3VTJ2 1-941): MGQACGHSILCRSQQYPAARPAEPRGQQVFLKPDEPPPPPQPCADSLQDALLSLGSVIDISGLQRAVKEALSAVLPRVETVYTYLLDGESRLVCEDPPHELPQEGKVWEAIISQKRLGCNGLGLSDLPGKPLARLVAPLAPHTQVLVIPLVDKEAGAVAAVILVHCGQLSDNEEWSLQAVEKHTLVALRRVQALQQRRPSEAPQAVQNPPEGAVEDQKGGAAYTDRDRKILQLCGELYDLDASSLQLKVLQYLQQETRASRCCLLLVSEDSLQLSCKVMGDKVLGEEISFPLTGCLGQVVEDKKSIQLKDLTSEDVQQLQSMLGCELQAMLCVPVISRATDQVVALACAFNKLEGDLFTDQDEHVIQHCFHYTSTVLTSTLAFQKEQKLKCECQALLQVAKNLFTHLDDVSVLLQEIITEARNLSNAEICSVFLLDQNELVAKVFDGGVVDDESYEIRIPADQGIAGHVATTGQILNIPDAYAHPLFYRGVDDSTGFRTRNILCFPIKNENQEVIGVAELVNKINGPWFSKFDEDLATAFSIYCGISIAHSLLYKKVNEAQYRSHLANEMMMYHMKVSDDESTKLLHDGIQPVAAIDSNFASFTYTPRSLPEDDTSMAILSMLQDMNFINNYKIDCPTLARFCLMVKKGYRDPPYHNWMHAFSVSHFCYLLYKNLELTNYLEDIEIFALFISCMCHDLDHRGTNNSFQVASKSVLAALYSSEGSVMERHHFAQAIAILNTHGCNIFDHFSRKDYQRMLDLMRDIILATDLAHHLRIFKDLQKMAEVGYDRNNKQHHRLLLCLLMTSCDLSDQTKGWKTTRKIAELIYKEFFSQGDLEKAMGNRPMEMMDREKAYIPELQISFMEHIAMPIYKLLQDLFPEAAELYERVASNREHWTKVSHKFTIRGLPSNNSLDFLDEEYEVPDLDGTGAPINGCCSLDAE

| Ki (Rhesus PDE2A3) | Ki (human PDE2A1) | SMILES | brain penetration [1] | potency at other PDE isoforms (other PDE isoforms) |
| --- | --- | --- | --- | --- |
| 9.4 nM | 6.9 nM | Cc1nc(-c2cn([C@H](C)c3ccc(C(F)(F)F)cc3C)nn2)cc(=O)[nH]1 (single isomer, unassigned) [Example 9] | – | – |
| 44.7 nM | 36.2 nM | Cc1nc(-c2cn(C(C)c3ccc(C(F)(F)F)cc3)nn2)cc(=O)[nH]1 (single isomer, unassigned) [Example 17, (R)- or (S)-2-methyl-6-(1-(1-(4-(trifluoromethyl)phenyl)ethyl)-1H-1,2,3-triazol-4-yl) pyrimidin-4(3H)-one] | – | – |
| 54.8 nM | 47 nM | Cc1nc(-c2cn(C(C)c3ccc(C(F)(F)F)cc3)nn2)cc(=O)[nH]1 (single isomer, unassigned) [Example 18, (S)- or (R)-2-methyl-6-(1-(1-(4-(trifluoromethyl)phenyl)ethyl)-1H-1,2,3-triazol-4-yl) pyrimidin-4(3H)-one] | – | – |
| 3.4 nM | 2.1 nM | CCc1ccc(C(C)n2cc(-c3cc(=O)[nH]c(C)n3)nn2)c(Cl)c1 (single isomer, unassigned) [Example 19, (R)- or (S)-6-(1-(1-(2-chloro-4-ethylphenyl)ethyl)-1H-1,2,3-triazol-4-yl)-2-methylpyrimidin-4(3H)-one] | – | – |
| 3.9 nM | 2.6 nM | Cc1nc(-c2cn(C(C)c3ccc(C(F)(F)F)c(F)c3F)nn2)cc(=O)[nH]1 (single isomer, unassigned) [Example 21, (R)- or (S)-6-(1-(1-(2,3-difluoro-4-(trifluoromethyl)phenyl)ethyl)-1H-1,2,3-triazol-4-yl)-2-methylpyrimidin-4(3H)-one] | – | – |
| 9 nM | 7 nM | Cc1nc(-c2cn(C(C)c3ccc(C(F)(F)F)cc3F)nn2)cc(=O)[nH]1 (single isomer, unassigned) [Example 28, (S)- or (R)-6-(1-(1-(2-fluoro-4-(trifluoromethyl)phenyl)ethyl)-1H-1,2,3-triazol-4-yl)-2-methylpyrimidin-4(3H)-one] | – | – |
| 1.7 nM | 0.93 nM | Cc1nc(-c2nnc3n2CCC[C@]3(C)c2ccc(C(F)(F)F)cc2F)cc(=O)[nH]1 (single isomer, unassigned) [Example 81] | – | – |
| 1.8 nM | 1.2 nM | Cc1nc(-c2nnn3c2CCC[C@]3(C)c2ccc(C(F)(F)F)cc2Cl)cc(=O)[nH]1 (single isomer, unassigned) [Example 87] | – | – |
| 0.63 nM | 0.4 nM | COc1ccc(Cc2nc(-c3nnn4c3CCC[C@]4(C)c3ccc(C(F)(F)F)cc3F)cc(=O)[nH]2)cc1 (single isomer, unassigned) [Example 89] | – | – |
| 1.3 nM | 1.5 nM | Cc1nc(-c2nnn3c2CCC3(C)c2ccc(C(F)(F)F)cc2F)cc(=O)[nH]1 (single isomer, unassigned) [Example 97, (R)- or (S)-6-(6-(2-Fluoro-4-(trifluoromethyl)phenyl)-6-methyl-5,6-dihydro-4H-pyrolo[1,2-c][1,2,3]triazol-3-yl)-2-methylpyrimidin-4(3H)-one] | – | – |
| – | – | COc1ccc(Cc2nn3c([C@@H](CCCc4ccccc4)[C@@H](C)O)nc(C)c3c(=O)[nH]2)cc1OC [Bay 60-7550] | limited brain penetration | significant potency |
| 50.4 nM | 55.8 nM | Cc1nc(-c2cn(C(C)c3ccc(OC(F)(F)F)cc3)nn2)cc(=O)[nH]1 (stereo not drawn) [Example 11, 2-methyl-6-(1-(1-(4-(trifluoromethoxy)phenyl)ethyl)-1H-1,2,3-triazol-4-yl) pyrimidin-4(3H)-one] | – | – |
| 8.9 nM | 8.4 nM | CC(c1ccc(C(F)(F)F)cc1F)n1cc(-c2cc(=O)[nH]c(Cc3ccccc3)n2)nn1 (stereo not drawn) [Example 12] | – | – |
| 98.9 nM | 76.8 nM | Cc1nc(-c2cn(C(C)c3ccc(OC(F)(F)F)cc3F)nn2)cc(=O)[nH]1 (stereo not drawn) [Example 13, 6-(1-(1-(2-fluoro-4-(trifluoromethoxy)phenyl)ethyl)-1H-1,2,3-triazol-4-yl)-2-methylpyrimidin-4(3H)-one] | – | – |
| 24.9 nM | 20.9 nM | CC(c1ccc(C(F)(F)F)cc1F)n1cc(-c2cc(=O)[nH]c(CC3CC3)n2)nn1 (stereo not drawn) [Example 14, 2-(cyclopropylmethyl)-6-(1-(1-(2-fluoro-4-(trifluoromethyl)phenyl)ethyl)-1H-1,2,3-triazol-4-yl)pyrimidin-4(3H)-one] | – | – |
| 6.5 nM | 4.7 nM | CC/C=C/c1nc(-c2cn(C(C)c3ccc(C(F)(F)F)cc3F)nn2)cc(=O)[nH]1 (stereo not drawn) [Example 15, (E)-2-(but-1-enyl)-6-(1-(1-(2-fluoro-4-(trifluoromethyl)phenyl)ethyl)-1H-1,2,3-triazol-4-yl)pyrimidin-4(3H)-one] | – | – |
| 39.4 nM | 37.8 nM | Cc1nc(-c2cn(C(C)c3ccc(S(F)(F)(F)(F)F)cc3)nn2)cc(=O)[nH]1 (stereo not drawn) [Example 16, 2-methyl-6-(1-(1-(4-(pentafluorosulfanyl)phenyl)ethyl)-1H-1,2,3-triazol-4-yl)pyrimidin-4(3H)-one] | – | – |
| 0.63 nM | 0.53 nM | Cc1nc(-c2cn(C3(c4ccc(C(F)(F)F)cc4Cl)CCC3)nn2)cc(=O)[nH]1 [Example 29, 6-(1-(1-(2-Chloro-4-(trifluoromethyl)phenyl)cyclobutyl)-1H-1,2,3-triazol-4-yl)-2-methylpyrimidin-4(3H)-one] | – | – |
| 2.1 nM | 1.6 nM | CCc1ccc(C(C)(C)n2cc(-c3cc(=O)[nH]c(C)n3)nn2)c(Cl)c1 [Example 32, 6-(1-(2-(2-chloro-4-ethylphenyl)propan-2-yl)-1H-1,2,3-triazol-4-yl)-2-methylpyrimidin-4(3H)-one] | – | – |
| 204 nM | – | Cc1nc(-c2nnc(C(C)c3ccc(C(F)(F)F)cc3)[nH]2)cc(=O)[nH]1 (stereo not drawn) [Example 60, 2-Methyl-6-(5-(1-(4-(trifluoromethyl)phenyl)ethyl)-4H-1,2,4-triazol-3-yl)pyrimidin-4(3H)-one] | – | – |
